Measured values reported in patent US7385086B2 (priority 1997, dated 2008).

Tested on: isoniazid (INH) resistant M. tuberculosis
Format: cell-based, Mycobacterium tuberculosis

| Compound | growth inhibition | isoniazid resistance level |
| --- | --- | --- |
| CCCCCCCCS(=O)(=O)CC(N)=O [HIII-50, n-Octanesulphonylacetamide] | inhibits |  |
| NNC(=O)c1ccncc1 [isoniazid, reference compound] |  | > 0.4 µg/mL |
